What was measured:
[1] = parameters: method as in doi:10.1021/acs.iecr.7b02286; Vx (McGowan volume LSER descriptor): unit not given here; conditions: common solvents; cited from earlier work
[2] = Surface energy components by IGC with the PSP/LSER method; format: physicochemical; conditions: for γd (dispersion component of surface energy): IGC, Dorris–Gray method, amorphous drug, 30 °C; for γhb (hydrogen-bonding surface energy component) / γa (acidic surface energy component) / γb (basic surface energy component) / γtot (total surface energy): PSP/LSER method; for γa (acidic surface energy component) / γb (basic surface energy component): Equation (27), unit assumed; for γtot (total surface energy): Equation (36)
Protocol: (§1) Inverse gas chromatography (IGC) was used to analyze solid samples packed into a chromatographic column as stationary phase. The equipment was a surface energy analyzer (iGC-SEA) from Surface Measurement Systems Ltd. (London, UK) and about 200 mg of each drug was inserted into silanized glass columns (3 mm inner diameter) by employing a standardized packing method with silanized glass wool that was used at both ends of the column as fixation. Prior to each measurement, the samples were conditioned for 1 h at 30 °C with dry helium with 0% relative humidity at a flow rate of 15 standard cubic centimeters per minute (sccm). Dead volume of the system was determined by injecting the inert probe methane prior and after each measurement. This stationary phase was flushed with an inert carrier gas—helium in the present study. Measuring conditions were the same as applied for sample conditioning, except for a flow rate of 10 sccm that was used. For all experiments, a relative surface coverage of 5% was selected.
The PSP framework can also be used for the estimation of the surface energy components of the studied drugs. However, there are practically no data on the total surface energies of drugs available in the literature. Instead, the dispersion components, γd, were determined by the Dorris–Gray method. This dispersion component is practically equivalent to our nonhydrogen-bonding component, γVES. Thus, we may use Equation (29) in the equivalent form of Equation (36) and obtain the total surface energy of the drugs, γtot: (36) γtot=γd3.1Vx+E+S+2AB/3.1Vx+E+S.
In a similar manner, the acidity and basicity components of the surface energy are obtained from Equation (27).

[3] = LSER descriptors by PSP approach from experimental inverse gas chromatography (IGC) data; format: physicochemical; conditions: initial or tentative estimates; for A (PSP): LSER acidity descriptor; for B (PSP): LSER basicity descriptor; for S (PSP): LSER polarity descriptor
Protocol: as §1
The extent of interactions between the solid phase of interest and the probe gas is obtained by the net retention volume VN:(31) VN=j/mF(tR−t0)T/273.15, where T is the column temperature, F is the carrier gas flow rate at 1 atm and 273.15 K, m is the sample mass, tR is the retention time of the absorbed probe gas and t0 is the mobile phase hold up time, and finally, j represents the James–Martin correction (that adjusts retention time for the pressure drop effect in the column bed). The calculated retention volume VN is then used to estimate the mass activity coefficient, Ω at infinite dilution:(32) ln(Ω)=ln(273.15R/p0M1VN)−p0(B11−V1)/RT, where po is the saturation pressure and M is the molecular mass, while B11 is the second virial coefficient and V1 holds for molar volume of the probe gas. Conversion of the mass activity coefficient Ω to mole fraction activity coefficient γ (at infinite dilution) is done via the following equation:(33) lnγ1res,∞=ln(Ω1M1/M2)−(lnr1/r2+1−r1/r2)=r1χ12. and provided the basis for further thermodynamic analysis, as described in the Results section.
The PSP approach was used to characterize the studied drugs, that is, to determine their LSER descriptors from the experimental IGC data. The McGowan volume, Vx, is an atom-specific quantity and, thus, it is obtained either from the ACD software or from the freely accessible database via their SMILES form. […].
A and B descriptors were then obtained from IGC data with hydrogen-bonding probes (acidic, like chloroform, basic, like acetone, and homosolvated, like ethanol) correlated with Equation (34).

[4] = Differential scanning calorimetry (enthalpy of fusion); format: physicochemical; conditions: DSC, 10 °C/min, triplicate
Protocol: Differential scanning calorimetry (DSC) thermograms were obtained using a DSC 1 instrument from Mettler-Toledo AG (Greifensee, Switzerland). The instrument was calibrated for temperature and enthalpy using indium. Nitrogen was used as protective gas (150 mL/min). Samples (2–3 mg) were placed in 40 μL aluminum pans with pierced aluminum lids (Mettler-Toledo AG, Greifensee, Switzerland). The melting onset temperature (Tm) and the enthalpy of fusion (ΔHf) were determined by heating the samples at 10 °C/min from 25 °C to a maximum temperature of 300 °C. All DSC measurements were carried out in triplicate.

[5] = Cohesive energy (solubility-parameter) components by the PSP/LSER method

| Compound | A (acidity LSER descriptor) [1] | B (basicity LSER descriptor) [1] | E (excess refractivity LSER descriptor) [1] | S (polarity LSER descriptor) [1] | Vx (McGowan volume LSER descriptor) [1] | also measured |
| --- | --- | --- | --- | --- | --- | --- |
| CCO [Ethanol] | 0.370 | 0.480 | 0.250 | 0.419 | 0.449 | – |
| CCC(C)=O [Methyl ethyl ketone] | – | 0.510 | 0.170 | 0.697 | 0.688 | – |
| CCC(C)(C)C(=O)O[C@H]1C[C@@H](C)C=C2C=C[C@H](C)[C@H](CC[C@@H]3C[C@@H](O)CC(=O)O3)[C@H]21 [Simvastatin, simvastatin] | – | – | – | – | – | γd (dispersion component of surface energy) [2]: 57.36 mJ/m^2; γhb (hydrogen-bonding surface energy component) [2]: 2.64 mJ/m^2; γa (acidic surface energy component) [2]: 0.71 mJ/m^2; γb (basic surface energy component) [2]: 2.47 mJ/m^2; γtot (total surface energy) [2]: 60.00 mJ/m^2; A (PSP) [3]: 0.20; B (PSP) [3]: 0.7 ± 0.2; S (PSP) [3]: 4.28; ΔH^m (heat of fusion) [4]: 6.969 ± 0.198 kcal/mol |
| ClC(Cl)(Cl)Cl [Carbon tetrachloride] | – | – | 0.460 | 0.380 | 0.739 | – |
| Cc1ccccc1 [Toluene] | – | – | 0.600 | 0.520 | 0.857 | – |
| CCCCOC(C)=O [n-Butyl acetate] | – | 0.449 | 0.071 | 0.597 | 1.028 | – |
| CCCO [1-Propanol] | – | – | 0.240 | 0.420 | 0.590 | – |
| CO [Methanol] | 0.430 | 0.470 | 0.280 | 0.439 | 0.308 | – |
| C1CCOC1 [Tetrahydrofuran] | – | 0.479 | 0.291 | 0.524 | 0.622 | – |
| Oc1ccccc1 [Phenol] | 0.600 | 0.300 | 0.808 | 0.890 | 0.775 | – |
| CC(C)=O [Acetone] | – | 0.493 | 0.180 | 0.703 | 0.547 | – |
| CCCCCCC [n-Heptane] | – | – | – | – | 1.095 | – |
| CCc1ccccc1 [Ethylbenzene] | – | – | – | 0.510 | – | – |
| ClCCl [Dichloromethane] | 0.100 | – | 0.390 | 0.574 | 0.494 | – |
| CC#N [Acetonitrile] | 0.040 | 0.330 | 0.241 | 0.900 | 0.404 | – |
| CCCCCCCCCC [n-Decane] | – | – | – | – | 1.518 | – |
| CCOC(C)=O [Ethyl acetate] | – | 0.450 | 0.110 | 0.618 | 0.747 | – |

| Compound | A (acidity LSER descriptor) [1] | B (basicity LSER descriptor) [1] | E (excess refractivity LSER descriptor) [1] | S (polarity LSER descriptor) [1] | Vx (McGowan volume LSER descriptor) [1] | also measured |
| --- | --- | --- | --- | --- | --- | --- |
| CCOC(=O)N1CCC(=C2c3ccc(Cl)cc3CCc3cccnc32)CC1 [Loratadine, loratadine] | – | – | – | – | – | γd (dispersion component of surface energy) [2]: 41.6 mJ/m^2; γhb (hydrogen-bonding surface energy component) [2]: 0.00 mJ/m^2; γtot (total surface energy) [2]: 41.60 mJ/m^2; A (PSP) [3]: 0.00; B (PSP) [3]: 0.6 ± 0.2; S (PSP) [3]: 2.96; σd (dispersion PSP) [5]: 19.11 MPa^0.5; σp (polarity PSP) [5]: 9.87 MPa^0.5; ΔH^m (heat of fusion) [4]: 6.685 ± 0.043 kcal/mol |
| CC(=O)N1CCN(c2ccc(OCC3COC(Cn4ccnc4)(c4ccc(Cl)cc4Cl)O3)cc2)CC1 (stereo not shown) [Ketoconazole, ketoconazole] | – | – | – | – | – | γd (dispersion component of surface energy) [2]: 45.86 mJ/m^2; γhb (hydrogen-bonding surface energy component) [2]: 0.00 mJ/m^2; γa (acidic surface energy component) [2]: 0 mJ/m^2; γb (basic surface energy component) [2]: 1.84 mJ/m^2; γtot (total surface energy) [2]: 45.86 mJ/m^2; A (PSP) [3]: 0.00; B (PSP) [3]: 0.7 ± 0.3; S (PSP) [3]: 2.75; σGa (acidity PSP) [5]: 0.00 MPa^0.5; σGb (basicity PSP) [5]: 4.26 MPa^0.5; σd (dispersion PSP) [5]: 19.52 MPa^0.5; σhb (hydrogen-bonding PSP) [5]: 0.00 MPa^0.5; σp (polarity PSP) [5]: 8.45 MPa^0.5; σtot (square root of total cohesive energy density, equivalent to δtot) [5]: 21.27 MPa^0.5; ΔH^m (heat of fusion) [4]: 12.71 ± 0.141 kcal/mol |
| O [Water] | 0.820 | 0.350 | 0.000 | 0.450 | 0.167 | – |
| CCCCCCCCC [n-Nonane] | – | – | – | – | 1.377 | – |
| c1ccccc1 [Benzene] | – | – | 0.610 | 0.520 | 0.716 | – |
| CCCCO [1-Butanol] | – | – | 0.220 | 0.420 | 0.731 | – |
| CC(C)O [Isopropanol] | 0.330 | 0.560 | 0.210 | 0.366 | 0.590 | – |
| OCCO [Ethylene glycol] | 0.580 | 0.780 | 0.400 | 0.900 | 0.508 | – |
| CCCCCC [n-Hexane] | – | – | – | – | 0.954 | – |
| CCC(C)O (stereo not shown) [2-Butanol] | 0.330 | 0.560 | 0.220 | 0.360 | 0.731 | – |
| C1CCCCC1 [Cyclohexane] | – | – | 0.310 | 0.010 | 0.845 | – |
| CCCCCCCC [n-Octane] | – | – | – | – | 1.236 | – |
| OC1CCCCC1 [Cyclohexanol] | 0.320 | 0.570 | 0.461 | 0.557 | 0.904 | – |
| C1COCCO1 [1,4-Dioxane] | – | 0.635 | 0.330 | 0.744 | 0.681 | – |
| CCCCCCCCO [1-Octanol] | 0.370 | 0.480 | 0.200 | 0.421 | 1.295 | – |
| ClC(Cl)Cl [Chloroform] | 0.150 | – | 0.430 | 0.490 | 0.617 | – |
